Measured values reported in ChEMBL document CHEMBL5390323, “Novel IRAK4 Inhibitors for Treating Asthma, COPD, Cancer, Autoinflammatory Diseases, and Autoimmune Diseases” (ACS Med Chem Lett, 2023).

Target: T1, Interleukin-1 receptor-associated kinase 4 (Homo sapiens, UniProt Q9NWZ3)
T1 sequence (Q9NWZ3 whole entry): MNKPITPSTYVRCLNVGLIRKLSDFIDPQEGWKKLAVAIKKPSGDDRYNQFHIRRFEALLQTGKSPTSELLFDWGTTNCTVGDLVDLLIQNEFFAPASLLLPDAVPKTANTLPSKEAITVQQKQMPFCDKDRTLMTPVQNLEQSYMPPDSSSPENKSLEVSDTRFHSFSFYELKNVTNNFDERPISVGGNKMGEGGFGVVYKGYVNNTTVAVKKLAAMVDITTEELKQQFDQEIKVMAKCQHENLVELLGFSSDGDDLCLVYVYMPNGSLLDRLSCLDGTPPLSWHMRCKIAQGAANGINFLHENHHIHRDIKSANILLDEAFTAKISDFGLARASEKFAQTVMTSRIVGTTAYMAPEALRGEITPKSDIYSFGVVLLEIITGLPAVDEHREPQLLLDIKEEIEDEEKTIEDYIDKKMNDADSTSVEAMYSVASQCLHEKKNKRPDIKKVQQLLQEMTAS
Assay: Inhibition of recombinant human full length his-tagged IRAK4 expressed in insect cells using KKARFSRFAGSSPSQSSMVAR as peptide substrate preincubated for 15 mins followed by substrate addition and measured after 2 hrs in presence of ATP by LC-MS/MS analysis

IC50: 0.5 nM
SMILES: COc1cc2nn([C@H]3CC[C@H](n4ccnc4C(C)O)CC3)cc2cc1C(=O)Nc1cccn(C)c1=O (stereo partly specified)
